Data reported in the supplement of paper PMC10307832.

Columns and labels:
Experiment in all cases: relative viability (nuclei count vs DMSO), 5 days (fraction); higher = more cells survive
Etoposide + OSI-027 = compound: COc1cc([C@@H]2c3cc4c(cc3[C@@H](O[C@@H]3O[C@@H]5CO[C@@H](C)O[C@H]5[C@H](O)[C@H]3O)[C@H]3COC(=O)[C@H]23)OCO4)cc(OC)c1O [Etoposide] + COc1cccc2cc(-c3nc([C@H]4CC[C@H](C(=O)O)CC4)n4ncnc(N)c34)[nH]c12 [OSI-027] (partner 0.5 µM)
How it was run: (§1)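 Relative viability is defined as nuclei in treated wells over nuclei in vehicle wells. Duplicate plates were run and medians reported. Lung cancer cell lines in 1536-well plates were dosed by pin tool one day after seeding, with one drug or with a fixed anchor-drug dose plus five library-drug doses (not always all listed) in √10 steps, and nuclei were counted after 5 days.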

Etoposide + Linsitinib = compound: COc1cc([C@@H]2c3cc4c(cc3[C@@H](O[C@@H]3O[C@@H]5CO[C@@H](C)O[C@H]5[C@H](O)[C@H]3O)[C@H]3COC(=O)[C@H]23)OCO4)cc(OC)c1O [Etoposide] + C[C@]1(O)C[C@@H](c2nc(-c3ccc4ccc(-c5ccccc5)nc4c3)c3c(N)nccn32)C1 [Linsitinib] (partner 1 µM)
How it was run: as §1

Etoposide + Alpelisib = compound: COc1cc([C@@H]2c3cc4c(cc3[C@@H](O[C@@H]3O[C@@H]5CO[C@@H](C)O[C@H]5[C@H](O)[C@H]3O)[C@H]3COC(=O)[C@H]23)OCO4)cc(OC)c1O [Etoposide] + Cc1nc(NC(=O)N2CCC[C@H]2C(N)=O)sc1-c1ccnc(C(C)(C)C(F)(F)F)c1 [Alpelisib] (partner 2 µM)
How it was run: as §1

Etoposide + Vorinostat = compound: COc1cc([C@@H]2c3cc4c(cc3[C@@H](O[C@@H]3O[C@@H]5CO[C@@H](C)O[C@H]5[C@H](O)[C@H]3O)[C@H]3COC(=O)[C@H]23)OCO4)cc(OC)c1O [Etoposide] + O=C(CCCCCCC(=O)Nc1ccccc1)NO [Vorinostat] (partner 1 µM)
How it was run: as §1

Cell Line | relative viability (Etoposide + OSI-027; first compound 0.01 µM) | relative viability (Etoposide + OSI-027; first compound 0.03162 µM) | relative viability (Etoposide + OSI-027; first compound 0.1 µM) | relative viability (Etoposide + OSI-027; first compound 0.3162 µM) | relative viability (Etoposide + OSI-027; first compound 1 µM) | relative viability (Etoposide + Linsitinib; first compound 0.01 µM) | relative viability (Etoposide + Linsitinib; first compound 0.03162 µM) | relative viability (Etoposide + Linsitinib; first compound 0.1 µM) | relative viability (Etoposide + Linsitinib; first compound 0.3162 µM) | relative viability (Etoposide + Linsitinib; first compound 1 µM) | relative viability (Etoposide + Alpelisib; first compound 0.01 µM) | relative viability (Etoposide + Alpelisib; first compound 0.03162 µM) | relative viability (Etoposide + Alpelisib; first compound 0.1 µM) | relative viability (Etoposide + Alpelisib; first compound 0.3162 µM) | relative viability (Etoposide + Alpelisib; first compound 1 µM) | relative viability (Etoposide + Vorinostat; first compound 0.01 µM) | relative viability (Etoposide + Vorinostat; first compound 0.03162 µM) | relative viability (Etoposide + Vorinostat; first compound 0.1 µM) | relative viability (Etoposide + Vorinostat; first compound 0.3162 µM) | relative viability (Etoposide + Vorinostat; first compound 1 µM)
PC-14 | 0.815 | 0.945 | 0.58 | 0.587 | 0.275 | 1.01 | 1.05 | 0.956 | 0.838 | 0.507 | 0.927 | 1.08 | 1.1 | 0.835 | 0.808 | 0.762 | 0.89 | 0.558 | 0.495 | 0.234
HARA | 0.517 | 0.554 | 0.151 | 0.422 | 0.118 | 0.892 | 1.15 | 1.04 | 0.738 | 0.182 | 0.649 | 0.854 | 0.792 | 0.584 | 0.167 | 0.443 | 0.573 | 0.586 | 0.125 | 0.095
NCI-H2126 | 0.742 | 0.662 | – | 0.706 | 0.506 | 0.738 | 0.719 | 0.457 | 0.598 | 0.437 | 0.75 | 0.75 | 0.52 | 0.723 | 0.306 | 0.707 | 0.911 | 0.512 | 0.603 | 0.227
NCI-H1437 | 1.04 | 0.891 | 0.423 | 0.635 | 0.31 | 0.993 | 1.07 | 0.984 | 0.566 | 0.262 | 0.915 | 0.945 | 0.883 | 0.42 | 0.256 | 0.871 | 0.877 | 0.804 | 0.435 | 0.396
NCI-H661 | 0.702 | 0.712 | 0.619 | 0.494 | 0.267 | 0.591 | 0.547 | 0.388 | 0.398 | 0.235 | 0.995 | 0.61 | 0.413 | 0.388 | 0.3 | 0.759 | 0.841 | 0.706 | 0.476 | 0.382
COR-L23 | 0.76 | 0.741 | 0.436 | 0.532 | 0.25 | 0.818 | 0.841 | 0.942 | 0.578 | 0.237 | 0.543 | 0.891 | 0.771 | 0.461 | 0.219 | 0.48 | 0.487 | 0.352 | 0.214 | 0.13
COR-L 105 | 0.756 | 0.851 | 0.432 | 0.669 | 0.556 | 0.874 | 0.958 | 1.02 | 0.769 | 0.713 | 1.08 | 1.06 | 1.12 | 0.807 | 0.56 | 1.09 | 0.856 | 0.731 | 0.727 | 0.734
LK-2 | 0.248 | 0.214 | 0.185 | 0.194 | 0.158 | 0.522 | 0.442 | 0.295 | 0.442 | 0.18 | 1.01 | 1.12 | 0.71 | 0.764 | 0.288 | 0.317 | 0.374 | 0.165 | 0.158 | 0.149
201T | 0.6 | 0.693 | 0.641 | 0.566 | 0.283 | 1.12 | 1.04 | 0.899 | 1 | 0.745 | 1.02 | 1.06 | 0.921 | 0.94 | 0.691 | 0.905 | 1.03 | 0.811 | 0.887 | 0.485
HCC-44 | 0.625 | 0.524 | 0.52 | 0.505 | 0.294 | 0.61 | 0.745 | 0.729 | 0.535 | 0.267 | 0.635 | 0.89 | 0.857 | 0.569 | 0.323 | 1.12 | 1.04 | 1.21 | 1.02 | 0.727
NCI-H647 | 0.579 | 0.627 | 0.456 | 0.491 | 0.267 | 1.14 | 1.15 | 1.13 | 0.416 | 0.164 | 1.19 | 1.22 | 1.02 | 0.429 | 0.125 | 0.467 | 0.631 | 0.657 | 0.181 | 0.103
H3255 | 0.617 | 0.709 | 0.417 | 0.542 | 0.477 | 0.872 | 1.11 | 0.815 | 0.713 | 0.336 | 0.606 | 0.758 | 0.448 | 0.585 | 0.298 | 0.788 | 0.774 | 0.458 | 0.278 | 0.314
NCI-H650 | 0.571 | 0.506 | 0.44 | 0.443 | 0.249 | 0.856 | 0.809 | 0.452 | 0.445 | 0.187 | 0.945 | 0.977 | 0.949 | 0.5 | 0.24 | 0.438 | 0.454 | 0.241 | 0.266 | 0.181
